Structures can show the parent of a compound that is named as a salt.
The compounds below were run against T1, Rat brain protein farnesyltransferase (Rattus norvegicus, UniProt Q02293+Q04631) (assay: % inhibition of farnesylation, scintillation proximity assay with biotin-K Ras B fragment). Settings: Table 2; 1 × 10^-6 M.
T1 construct: Rat brain protein farnesyltransferase activity is measured; from tissue; host or cells: rat brain
Assay type: biochemical
In short: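 Scintillation proximity read-out of farnesylation, using a biotinylated K Ras B fragment (0.1 mM final) in place of biotin-lamin. Enzyme purified from rat brain; results given as % inhibition.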

T1 sequence (Q02293 whole entry, the tested form may be a part, one chain of several): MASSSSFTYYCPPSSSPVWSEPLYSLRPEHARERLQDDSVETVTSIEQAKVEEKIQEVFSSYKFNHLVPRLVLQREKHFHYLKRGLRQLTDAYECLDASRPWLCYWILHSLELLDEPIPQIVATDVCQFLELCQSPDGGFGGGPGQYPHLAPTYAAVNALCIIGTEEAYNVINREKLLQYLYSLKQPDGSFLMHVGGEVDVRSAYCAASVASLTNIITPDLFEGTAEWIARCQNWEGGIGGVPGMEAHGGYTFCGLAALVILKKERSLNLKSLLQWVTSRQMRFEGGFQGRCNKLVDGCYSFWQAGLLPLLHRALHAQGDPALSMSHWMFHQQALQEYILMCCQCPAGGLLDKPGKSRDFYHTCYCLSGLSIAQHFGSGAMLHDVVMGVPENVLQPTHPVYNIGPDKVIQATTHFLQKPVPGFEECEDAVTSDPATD

% inhibition at 1 × 10^-6 M | Structure (SMILES)
35% | CSCC[C@H](NC(=O)c1ccc(CN(C(=O)OC(C)(C)C)C(CC2CCCCC2)CC2CCCCC2)cc1-c1ccccc1C)C(=O)O [Example 886]
85% | CSCC[C@H](NC(=O)c1ccc(NC(=O)OCc2cncs2)cc1-c1ccccc1C)C(=O)O [Example 902]
88% | CSCC[C@H](NC(=O)c1ccc(CN(CC(C)C)C(CC2CCCCC2)CC2CCCCC2)cc1-c1ccccc1C)C(=O)O [Example 908]
42% | CSCC[C@H](NC(=O)c1ccc(CN(C(=O)c2ccccc2)C(CC2CCCCC2)CC2CCCCC2)cc1-c1ccccc1C)C(=O)O [Example 910]
65% | CSCC[C@H](NC(=O)c1ccc(CN(C(CC2CCCCC2)CC2CCCCC2)S(=O)(=O)c2ccccc2)cc1-c1ccccc1C)C(=O)O [Example 911]

Same assay, conditions: Table 3; 1 × 10^-7 M

% inhibition at 1 × 10^-7 M | Structure (SMILES)
88% | CCSC[C@H](CC(C)C)N(C)Cc1ccc(C(=O)N[C@@H](CCSC)C(=O)O)c(-c2ccccc2C)c1 [Example 906]
85% | CCCCN(CCCC)C(=O)CNCc1ccc(C(=O)N[C@@H](CCSC)C(=O)O)c(-c2ccccc2C)c1 [Example 912]
89% | CCCCN(CCCC)C(=O)CN(C)Cc1ccc(C(=O)N[C@@H](CCSC)C(=O)O)c(-c2ccccc2C)c1 [Example 913]
91% | CSCC[C@H](NC(=O)c1ccc(CNCC(=O)N(Cc2ccccc2)Cc2ccccc2)cc1-c1ccccc1C)C(=O)O [Example 914]
78% | CCCCN(CCCC)Cc1ccc(C(=O)N[C@@H](CCSC)C(=O)O)c(-c2ccccc2C)c1 [Example 917]

Same assay, conditions: Table 4; 1 × 10^-8 M

% inhibition at 1 × 10^-8 M | Structure (SMILES)
92% | CSCC[C@H](NC(=O)c1ccc(CN[C@@H](CC2CCCCC2)C(=O)N2CCCCC2)cc1-c1ccccc1C)C(=O)O [Example 887]
86% | CSCC[C@H](NC(=O)c1ccc(CON=C(Cc2ccccc2)Cc2ccccc2)cc1-c1ccccc1C)C(=O)O [Example 888]
86% | CCSC[C@H](CC(C)C)NCc1ccc(C(=O)N[C@@H](CCSC)C(=O)O)c(-c2ccccc2C)c1 [Example 905]
79% | CSCC[C@H](NC(=O)c1ccc(CN(C)C(CC2CCCCC2)CC2CCCCC2)cc1-c1ccccc1C)C(=O)O [Example 907]
79% | CSCC[C@H](NC(=O)c1ccc(CN(C(C)=O)C(CC2CCCCC2)CC2CCCCC2)cc1-c1ccccc1C)C(=O)O [Example 909]
96% | CCCCS(=O)(=O)N(CCC1CCCCC1)Cc1ccc(C(=O)N[C@@H](CCSC)C(=O)O)c(-c2ccccc2C)c1 [Example 916]

Same assay, conditions: read-out: % inhibition at 1 × 10^-6 M; Table 2; 1 × 10^-6 M

inhibition at 1 µM | Structure (SMILES)
95% | CSCC[C@H](NC(=O)c1ccc(COCC(CC2CCCCC2)CC2CCCCC2)cc1-c1ccccc1C)C(=O)O [Example 889, lithium salt]

Same assay, conditions: read-out: % inhibition at 1 × 10^-7 M

Structure (SMILES) | inhibition at 0.1 µM
CSCC[C@H](NC(=O)c1ccc(COCc2cnco2)cc1-c1ccccc1C)C(=O)O [Example 891, N-[4-(oxazol-5-ylmethoxymethyl)-2-(2-methylphenyl)benzoyl]methionine lithium salt] | 94%
CSCC[C@H](NC(=O)c1ccc(COCc2cnc(-c3cccc(Cl)c3)o2)cc1-c1ccccc1C)C(=O)O [Example 893, N-[4-(2-(3-chlorophenyl)oxazol-5-ylmethoxymethyl)-2-(2-methylphenyl)benzoyl]methionine lithium salt] | 87%
CSCC[C@H](NC(=O)c1ccc(COCc2cnc(-c3ccc(Cl)cc3)o2)cc1-c1ccccc1C)C(=O)O [Example 894, N-[4-(2-(4-chlorophenyl)oxazol-5-ylmethoxymethyl)-2-(2-methylphenyl)benzoyl]methionine lithium salt] | 89%
CSCC[C@H](NC(=O)c1ccc(COCc2cnc(C(C)(C)C)s2)cc1-c1ccccc1C)C(=O)O [Example 895, N-[4-(2-t-butylthiazol-5-ylmethoxymethyl)-2-(2-methylphenyl)benzoyl]methionine lithium salt] | 92%

Same assay, conditions: read-out: % inhibition at 1 × 10^-7 M; Table 3; 1 × 10^-7 M

inhibition at 0.1 µM | Structure (SMILES)
96% | COc1ncc(COCc2ccc(C(=O)N[C@@H](CCSC)C(=O)O)c(-c3ccccc3C)c2)s1 [Example 896, N-[4-(2-methoxythiazol-5-ylmethoxymethyl)-2-(2-methylphenylbenzoyl]methioninelithium salt]
95% | CSCC[C@H](NC(=O)c1ccc(COCc2cnc(-c3ccc(F)cc3)s2)cc1-c1ccccc1C)C(=O)O [Example 900, N-[4-(2-(4-fluorophenylthiazol-5-ylmethoxymethyl)-2-(2-methylphenyl)benzoyl]methioninelithium salt]

Same assay, conditions: read-out: % inhibition at 1 × 10^-8 M

Structure (SMILES) | inhibition at 0.01 µM
CSCC[C@H](NC(=O)c1ccc(COCc2cnc(-c3ccccc3Cl)o2)cc1-c1ccccc1C)C(=O)O [Example 892, N-[4-(2-(2-chlorophenyl)oxazol-5-ylmethoxymethyl)-2-(2-methylphenyl)benzoyl]methionine lithium salt] | 59%
CSCC[C@H](NC(=O)c1ccc(COCc2cnc(-c3ccccc3Cl)s2)cc1-c1ccccc1C)C(=O)O [Example 897, N-[4-(2-(2-chlorophenyl)thiazol-5-ylmethoxymethyl)-2-(2-methylphenyl)benzoyl]methionine lithium salt] | 76%
CSCC[C@H](NC(=O)c1ccc(COCc2cnc(-c3cccc(F)c3)s2)cc1-c1ccccc1C)C(=O)O [Example 898, N-[4-(2-(3-fluorophenyl)thiazol-5-ylmethoxymethyl)-2-(2-methylphenyl)benzoyl]methionine lithium salt] | 82%
CSCC[C@H](NC(=O)c1ccc(COCc2cnc(-c3cccc(Cl)c3)s2)cc1-c1ccccc1C)C(=O)O [Example 899, N-[4-(2-(3-chlorophenyl)thiazol-5-ylmethoxymethyl)-2-(2-methylphenyl)benzoyl]methionine lithium salt] | 88%
CSCC[C@H](NC(=O)c1ccc(COCc2cnc(-c3ccc(Cl)cc3)s2)cc1-c1ccccc1C)C(=O)O [Example 901, N-[4-(2-(4-chlorophenyl)thiazol-5-ylmethoxymethyl)-2-(2-methylphenyl)benzoyl]methionine lithium salt] | 84%
CSCC[C@H](NC(=O)c1ccc(COCc2cc(-c3ccc(Cl)cc3)co2)cc1-c1ccccc1C)C(=O)O [Example 904, N-[4-(4-(4-chlorophenyl)furan-2-ylmethoxymethyl)-2-(2-methylphenyl)benzoyl]methionine lithium salt] | 85%

Same assay, conditions: read-out: % inhibition at 1 × 10^-8 M; Table 4; 1 × 10^-8 M

inhibition at 0.01 µM | Structure (SMILES)
91% | CSCC[C@H](NC(=O)c1ccc(CO[C@H](CSC(C)(C)C)CC2CCCCC2)cc1-c1ccccc1C)C(=O)O [Example 883, N-[4-(3-Cyclohexyl-1-t-butylthiopropan-2-yl)oxymethyl-2-(2-methylphenyl)benzoyl]methionine lithium salt]
94% | CSCC[C@H](NC(=O)c1ccc(CO[C@H](CSc2ccccc2)CC2CCCCC2)cc1-c1ccccc1C)C(=O)O [Example 884, N-[4-(3-Cyclohexyl-1-phenylthiopropan-2-yl)oxymethyl-2-(2-methylphenyl)benzoyl]methionine lithium salt]
95% | CSCC[C@H](NC(=O)c1ccc(CO[C@@H](CC2CCCCC2)CN2CCOCC2)cc1-c1ccccc1C)C(=O)O [Example 885, N-[4-(3-Cyclohexyl-1-morpholin-4-ylpropan-2-yl)oxymethyl-2-(2-methylphenyl)benzoyl]methionine trifluoroacetate salt]
